Assay type: physicochemical
Description: Referring to FIGS. 1A and B, differential scanning calorimetry thermographs compare the melting of (1A) lysine and (1B) a lysine-based drug delivery composition, according to this example. […] These observations, further confirmed with Raman spectroscopy and x-ray powder diffraction, are consistent with the nanosizing effect on melting point and thermal stability of crystals due to the increased surface to volume ratio.

SMILES: NCCCC[C@H](N)C(=O)O [lysine]
- onset decomposition temperature (thermal stability): about 257 °C

— patent US9468654B1, “Drug delivery compositions and methods” (WILKES UNIVERSITY, priority 2014, dated 2016)
